Results reported in paper PMC6522941, “Design, synthesis, and anticancer evaluation of novel quinoline derivatives of ursolic acid with hydrazide, oxadiazole, and thiadiazole moieties as potent MEK inhibitors” (Journal of Enzyme Inhibition and Medicinal Chemistry, 2019).

Columns and labels:
[1] = system: ERK1/2 and pERK1/2 in HeLa cells; assay: Western blot of ERK and pERK; type: cell-based, human; conditions: 48 h
Description: (§1) HeLa cells were seeded at a density of 5 × 10^6 cells per well and attached for 8 h, and then treated with different concentrations of compound 4d for 48 h. After the treatment, the cells were harvested and washed twice with PBS. The harvested cells were lysed with radio-immunoprecipitation assay (RIPA) lysis buffer (Beyotime Biotech., Nantong, China) with 1% cocktail (Sigma-Aldrich, St. Louis, MO, USA). Whole-cell protein lysates were prepared and centrifuged at 12,000 rpm for 10 min at 4 °C. The total proteins were determined using Bradford reagent (Bio-Rad Laboratories, Inc., Hercules, CA, USA). Exactly 40 μg of protein per lane was separated through sodium dodecyl sulphate-polyacrylamide gel electrophoresis and then transferred onto a polyvinylidene difluoride membrane (Millipore, Bedford, MA, USA). The membranes were incubated with each antibody and detected through immunoblot analysis. All of the antibodies were purchased from Cell signalling Technology, Inc. (Boston, MA, USA) and diluted in accordance with the manufacturer’s instruction. Proteins were visualised using a C-Digit® imaging system (LI-COR, Lincoln, NE, USA).
Subsequently, to evaluate the MEK inhibition of compound 4d in cancer cells, western blot analyses were also carried out to evaluate the expression levels of ERK and phosphorylated ERK (pERK) proteins in compound 4d-treated HeLa cells.

[2] = system: SMMC-7721 cells; assay: MTT cytotoxic assay, SMMC-7721; type: cell-based; conditions: Homo sapiens, 72 h
Description: (§2) Human breast cancer cell line (MDA-MB-231), cervical carcinoma cell line (HeLa), the liver cancer cell line (SMMC-7721) and normal hepatocyte cell line (QSG-7701) were maintained in Dulbecco Modified Eagle Medium (DMEM) containing 4.0 mM L-Glutamine and 4500 mg/L Glucose supplemented with 10% (v/v) foetal bovine serum (FBS) and 100 U/mL penicillin/streptomycin at 37 °C in humidified atmosphere of 5% CO2 and 95% air.
(§3) Exponentially growing MDA-MB-231, Hela and SMMC-7721 cell lines were seeded into 96-well plate for 100 μL and treated with different concentrations of the synthetic compounds for 72 h, and then 10 μL of MTT (10 mg/mL) was added and incubation for 3 ∼ 4 h at 37 °C. The generated purple formazan crystals from viable can be dissolved by adding 100 μL DMSO. The plates were swirled gently for 5 min and quantified by measuring the OD of the plates at the wavelength of 540 nm. Each concentration was repeated in three wells and the same experimental condition was provided for all compounds. The results were expressed as IC50 values with standard deviations, which was defined as the concentration at which 50% survival of cells was discerned. Etoposide was co-assayed as positive control.
(§4) The in vitro cytotoxic activity of derivatives 3a–d, 4a–h, 5a–h, and 6a–h were evaluated by MTT assay against human breast cancer cell line (MDA-MB-231), cervical carcinoma cell line (HeLa), hepatocarcinoma cell line (SMMC-7721) and human normal hepatocyte cell line (QSG-7701). The anticancer drug etoposide was co-assayed as the positive control. All tested compounds were dissolved in DMSO and the stock solutions were diluted by DMEM medium before treatment of the cultured cells.

[3] = system: HeLa cells; assay: JC-1 mitochondrial membrane potential assay; type: cell-based, human; conditions: 24 h, control 7.59
Description: The JC-1 mitochondrial membrane potential assay kit (Keygene Biotech., Nanjing, China) was employed to measure mitochondrial depolarisation in HeLa cells. Briefly, cells cultured in six-well plates after indicated treatments by compound 4d were incubated with an equal volume of JC-1 staining solution (5 μg/mL) at 37 °C for 20 min and rinsed twice with PBS. Mitochondrial membrane potentials were monitored by determining the relative amounts of dual emissions from mitochondrial JC-1 monomers or aggregates using flow cytometry (Becton-Dickinson FACSCalibur, New York, NY, USA). Mitochondrial membrane depolarisation is indicated by an increase in the percentage of cells with low ΔΨm (green fluorescence and lower right quadrant) compared with cells with high ΔΨm (red fluorescence and upper right quadrant).
As a kind of important organelle, Mitochondria play indispensable roles not only on supplying metabolic energy in the form of ATP, but also on regulating the signal transmission during the apoptosis of cancer cells. In addition, the mitochondrial dysfunction can be aroused under high ROS exposure, leading to the collapse of mitochondrial membrane potential (ΔΨm), which is a characteristic phenomenon of early apoptosis. Loss of ΔΨm can be detected using the fluorescent cationic dye JC-1, which spontaneously forms red fluorescent dimers (J aggregates) under high ΔΨm, whereas its monomeric form showing green fluorescence is prevalent in cells with low ΔΨm. Green and red fluorescence can be observed at 527 and 590 nm, respectively. Thus, changes in the green/red fluorescence ratio reflect the variation in ΔΨm, which can be quantitatively analysed by flow cytometry.

[4] = system: p90RSK, p-p90RSK, BAD, BIM in HeLa cells; assay: Western blot of downstream proteins of ERK; type: cell-based, human; conditions: 0.05, 0.1, 0.2 μM, 48 h
Description: as §1
In addition, the effect of compound 4d on the downstream proteins of ERK (p90RSK, BAD, and BIM) was also investigated by western blot analysis. It is known that activated ERK1/2 (p-ERK1/2) directly phosphorylates and activates p90RSK, which subsequently decreases the level of pro-apoptotic BH3-only proteins BIM and BAD and inhibits their apoptosis-promoting activity.

[5] = system: HeLa cells; assay: MTT cytotoxic assay, HeLa; type: cell-based; conditions: Homo sapiens, 72 h
Description: as §2, §3, §4

[6] = system: HeLa cells; assay: Annexin V-FITC/PI dual staining apoptosis assay; type: cell-based, human; conditions: 48 h, control 6.44
Description: The extent of apoptosis was quantitatively measured using Annexin V-FITC/PI dual staining assay. HeLa cells were seeded into a six-well plate at 5 × 10^5 cells per well in 10% foetal calf serum (FBS)-DMEM into six-well plates and treated with different concentrations of the indicated compound 4d for 48 h. The cells were detached with 0.25% trypsin, washed with ice-cold PBS for twice and then resuspended in 1 × Binding buffer ([…]). The cells were stained with 5 μL of Annexin V-FITC and 5 μL of PI ([…]) to each tube. The cells were gently vortexed and incubated in the dark at room temperature for 15 min and then keep them at 4 °C. The samples were analysed by a flow cytometer (Becton-Dickinson FACSCalibur, Totowa, NJ, USA) and data were analysed using the FlowJo software.
The Annexin V-FITC/PI dual staining assay on HeLa cells treated with compound 4d was carried out to examine the association of compound 4d-mediated cytotoxicity with induction of apoptosis.

[7] = system: MDA-MB-231 cells; assay: MTT cytotoxic assay, MDA-MB-231; type: cell-based, human; conditions: Homo sapiens, MDA-MB-231, 72 h
Description: as §2, §3, §4

SMILES: CC(=O)NNC(=O)C12CCC(C)C(C)C1C1=CCC3C4(C)Cc5cc6cc(Cl)ccc6nc5C(C)(C)C4CCC3(C)C1(C)CC2 (stereo not drawn) [Compound 4d, N-[5′-chloro-ursa-12-en-(2,3)-quinoline-28-oyl]-acetohydrazide]
- expression level of pERK1/2, % of the control group ([1]; 0.05 μM): 74.7%
- expression level of pERK1/2, % of the control group ([1]; 0.1 μM): 41.3%
- expression level of pERK1/2, % of the control group ([1]; 0.2 μM): 29.5%
- expression levels of ERK1/2 ([1]; 0.05, 0.1, 0.2 μM): slightly decreased
- expression levels of pERK1/2 ([1]; 0.05, 0.1, 0.2 μM): significantly downregulated
- IC50 [2]: 0.34 ± 0.03 µM
- Cells with low ΔΨm (green fluorescence, lower right quadrant) ([3]; 0.05 μM): 36.33%
- Cells with low ΔΨm (green fluorescence, lower right quadrant) ([3]; 0.1 μM): 54.08%
- Cells with low ΔΨm (green fluorescence, lower right quadrant) ([3]; 0.2 μM): 70.83%
- expression level of p90RSK [4]: significantly decreased
- expression level of p-p90RSK [4]: significantly decreased
- level of BAD [4]: upregulated
- level of BIM [4]: upregulated
- IC50 [5]: 0.08 ± 0.01 µM
- percentage of early and late apoptotic cells ([6]; 0.05 μM): 37.56%
- percentage of early and late apoptotic cells ([6]; 0.1 μM): 58.31%
- percentage of early and late apoptotic cells ([6]; 0.2 μM): 74.22%
- IC50 [7]: 0.12 ± 0.01 µM
